Experimental findings from patent US12685732B2, “Composition for improving, preventing or treating muscular disorders including sulfonamide-based compounds” (The Industry & Academic Cooperation in Chungnam National …, priority 2022, dated 2026) are described below.

The test system of series [1] is C2C12-PHF20/YY1-promoter-GFP cell line. Description: HTS system: GFP (green luminescence) in PHF20-overexpressing myoblasts carrying YY1 promoter-GFP. Conditions: 10 μM compound, 24 h, after 250 ng/ml doxycycline 24 h; FDA-approved drug library of 1670 compounds. In kind it is cell-based, mouse. The text has this: C2C12 myoblasts, which were stable cells in which PHF20 was overexpressed, were transformed with a plasmid coexisting with a YY1 promoter and GFP, which inhibited muscle differentiation, to prepare a stable cell line. The degree of GFP signal suppression was quantified and measured, and the degree of muscle differentiation was used as a quantitative measurement index (FIG. 1).
Specifically, the C2C12-PHF20/YY1-promoter-GFP cell line according to Example 1 was dispensed in a 96-well plate at 0.5×10^5, cultured for 24 hours, and cells in a 70% confluent state were treated with 250 ng/ml of doxycycline for 24 hours, and then treated with each compound at a final concentration of 10 μM.
For fluorescence intensity, C2C12-PHF20/YY1-promoter-GFP cells were dispensed at 4×10^5 in a 6-well culture plate and cultured for 24 hours. […] Thereafter, the degree of green luminescence was confirmed using GloMax microplate readers explorer (Promega, Madison, Wisconsin, USA).

Series [2] can be described thus: Body weight in aging mouse model. Format: in vivo. The following applies: oral 5, 50, 500 mpk daily for 28 days, vs PBS. As for the experimental part: (§1) In order to confirm the treadmill exercise capacity according to a dose of sulfasalazine, the mice divided in 3-1 above were orally administered at 10:30 every day for 28 days with Group 1 of PBS (Hyclone Dulbecco's Phaosphate Buffer saline Cat. SH30028.02), Group 2 of sulfasalazine (Sigma, Cat. Nr S0883. CAS Number 599-79-1) 5 mpk, Group 3 of sulfasalazine 50 mpk, and Group 4 of sulfasalazine 500 mpk. In order to reduce an error on treadmill exercise ability, the mice were starved for 3 hours before measuring the treadmill, and then the treadmill was performed 4 times at 7-day intervals (0 days, 7 days, 14 days, and […]) according to Table 1 below.
For a total of 28 days, the body weight of the mouse was measured, and any change in body weight was confirmed.

For series [3], the system named is aging mouse model. Nature of the series: Treadmill exercise capacity in aging mouse model. Format: in vivo. The following applies: oral 5, 50, 500 mpk daily for 28 days, vs PBS (G1). The procedure: Treadmill adaptation was performed randomly for 3 days under conditions of grade 0, speed 15 (cm/sec), 10 minutes, electrical stimulation […] (defined as exhaustion when electrical stimulation occurred consecutive 4 times or more), and according to the treadmill result, mice with similar ability were distributed into each group and divided into 4 groups of 8 mice per group.
as §1

The test system of series [4] is aging mouse model. Nature of the series: Rota Rod balance ability in aging mouse model. The following applies: oral 5, 50, 500 mg/kg daily for 28 days; days 0, 7, 14, 21, 28. In kind it is in vivo. As for the experimental part:
(§2) In order to confirm the balance ability and the grip strength recovery effect of the Rota Rod according to a dose of sulfasalazine, 50-week-old C57BL/6J male mice were divided into Group 1 of PBS, Group 2 of sulfasalazine 5 mg/kg, Group 3 of sulfasalazine 50 mg/kg, and Group 4 of sulfasalazine 500 mg/kg, and orally administered every day at 10 am for 28 days, and then the body weight was measured.
(§3) The Rota Rod was measured on days 0, 7, 14, 21, and 28 with the animal group constructed in Group 2 under the conditions shown in Table 2 below, and the results were shown in FIG. 11 ((*) p≤0.05 vs G1). In the same animal group as the Rota Rod, the grip strength was measured on the 2 paws and 4 paws of the mouse on days 0, 9, 16, 23, and 28, and the results were shown in FIGS. 12A and 12B.
For orientation: Falling from the rotarod earlier than controls is read as motor impairment.

Series [5] relates to aging mouse model. Description: Grip strength in aging mouse model. Format: in vivo. The following applies: oral 5, 50, 500 mg/kg daily for 28 days; vs control Group 1. As for the experimental part:
as §2, §3

A short description of series [6]: Body weight in high-fat diet CTX-induced sarcopenia mouse model. In kind it is in vivo. The following applies: oral 5, 50, 500 mg/kg daily for 14 days. As for the experimental part:
(§4) In order to construct a high-fat diet CTX-induced sarcopenia mouse model, for 23-week-old C57BL/6J male mice subjected to 60% HFD for 19 weeks, cardiotoxin (LATOXAN, Portes-lés-Valence, France) was dissolved at 1 mg/ml in PBS to make a high-concentration stock solution. For application to mice, the stock solution was diluted again in PBS (Hyclone Dulbecco's Phaosphate Buffer saline Cat. SH30028.02) to a final concentration of 0.03 mg/ml and used, and intramuscularly injected into both quadriceps muscles of the mouse using a 1 ml syringe (24 G) to construct the high-fat diet CTX-induced sarcopenia mouse model.
(§5) Five groups of Group 1 of orally administering PBS to a high-fat diet mouse without injecting CTX, Group 2 of orally administering PBS to a high-fat diet mouse injected with CTX, Group 3 of orally administering sulfasalazine 5 mg/kg to the high-fat diet mouse injected with CTX, Group 4 of orally administering sulfasalazine 50 mg/kg to the high-fat diet mouse injected with CTX, and Group 5 of orally administering sulfasalazine 500 mg/kg to the high-fat diet mouse injected with CTX were divided and orally administered at 10 am every day for 14 days, and the body weights were measured and the results were shown in FIG. 13.

In series [7] the test system is high-fat diet CTX-induced sarcopenia mouse model. Nature of the series: Rota Rod balance ability in high-fat diet CTX-induced sarcopenia mouse model. Format: in vivo. Conditions: oral 5, 50, 500 mg/kg daily for 14 days; days 4, 8, 12; vs group injected with CTX. The procedure: as §4
as §5, with “13. […]” for “13.”

The test system is the same in series [8]. Nature of the series: Grip strength in high-fat diet CTX-induced sarcopenia mouse model. Format: in vivo. The following applies: oral 5, 50, 500 mg/kg daily for 14 days; days 5, 9, 13; vs group injected with CTX. The procedure:
as §4
as §5, with “13. […]” for “13.”

Series [9] in a line: Body weight in Velcro injured sarcopenia mouse model. In kind it is in vivo. Conditions: oral 5, 50, 500 mg/kg daily for 14 days. The text has this: (§6) The left leg of an 8-week-old C57BL/6J male mouse was anesthetized with isoflurane, the entire leg was wound from the ankle with a 5 cm sports tape, and then wound and fixed with a Velcro with a width of 10 mm, and the Velcro condition was checked every day for 14 days (FIG. 16). Meanwhile, in the present disclosure, Velcro injury means that muscle damage is caused by such Velcro by winding the muscle with the Velcro so as not to move.
(§7) In order to confirm the amount of treadmill exercise according to the dose of sulfasalazine, Group 1 (n=5) of orally administering PBS to 8-week-old C57BL/6J male mice without injury, Group 2 (n=5) of orally administering PBS to mice with Velcro injury, Group 3 (n=5) of orally administering sulfasalazine 5 mg/kg to mice with Velcro injury, Group 4 (n=5) of orally administering sulfasalazine 50 mg/kg to mice with Velcro injury, and Group 5 (n=5) of orally administering sulfasalazine 500 mg/kg to mice with Velcro injury were divided and orally administered at 10 am every day for 14 days, and the body weights were measured and the results were illustrated in FIG. 18. […]
For a total of 14 days, the body weights of the mice were measured, and any change in body weight was confirmed.

Series [10] has as its system Velcro injured sarcopenia mouse model. Nature of the series: Treadmill exercise capacity in Velcro injured sarcopenia mouse model. Format: in vivo. The following applies: oral 5, 50, 500 mg/kg; days 0, 3, 6, 10, 14; after day 6 of administration.
Text: as §6, §7

For `Nc1ccc(S(=O)(=O)Nc2ncccn2)cc1` [sulfadiazine], the “degree of green luminescence (GFP inhibition) in screening” value (from here on “degree … (GFP inhibition) in screening”) in [1] is reported as “effect of reducing green luminescence”.
Still for that read-out and setting: the entry for `COc1cc(NS(=O)(=O)c2ccc(N)cc2)nc(OC)n1` [sulfadimethoxine] is “effect of reducing green luminescence”.
For `COc1ncnc(NS(=O)(=O)c2ccc(N)cc2)c1OC` [sulfadoxin], in [1], the “degree … (GFP inhibition) in screening” value is on record as “effect of reducing green luminescence”.
As for `N=C(N)NS(=O)(=O)c1ccc(N)cc1` [sulfaguanidine], the “degree … (GFP inhibition) in screening” value in series [1] is recorded as “effect of reducing green luminescence”.
Turning to `COc1cnc(NS(=O)(=O)c2ccc(N)cc2)nc1` [sulfameter], the “degree … (GFP inhibition) in screening” value in [1] was “effect of reducing green luminescence”.
Still for that read-out and setting: the entry for `Cc1nnc(NS(=O)(=O)c2ccc(N)cc2)s1` [sulfamethizole] is “effect of reducing green luminescence”; for `Nc1ccc(S(N)(=O)=O)cc1` [sulfanilamide] it is “effect of reducing green luminescence”; for `Nc1ccc(S(=O)(=O)Nc2ccnn2-c2ccccc2)cc1` [sulfaphenazole] it is “effect of reducing green luminescence”.
Still for that read-out and setting: the entry for `Nc1ccc(S(=O)(=O)Nc2ccccn2)cc1` [sulfapyridine] is “effect of reducing green luminescence”.
As for `O=C(O)c1cc(/N=N/c2ccc(S(=O)(=O)Nc3ccccn3)cc2)ccc1O` [sulfasalazine], the “degree … (GFP inhibition) in screening” value in series [1] is listed as “effect of reducing green luminescence”. The body weight entry in [2], in series [6] and in series [9] was “no difference in body weight was observed” each time. Besides, the “treadmill exercise capacity (latency to fall)” value in series [3] is recorded as “the higher the sulfasalazine dose, the higher the treadmill exercise capacity”. Further, the “balance ability on the Rota Rod” value in series [4] and in series [7] was “recovery of balance ability of the mouse on the Rota Rod was improved” each time. The “grip strength, 2 paws” value in [5] and in [8] was “grip strength was improved with the increase in sulfasalazine dose” in each case. Besides, the “grip strength, 4 paws” value in series [5] and in series [8] was “grip strength was improved with the increase in sulfasalazine dose” in each case. For the same compound, in [10], the treadmill running distance result was “treadmill running distances were increased as the administration period was increased”. For the same compound, the treadmill running time entry in [10] is “treadmill running time was increased as the administration period was increased”.
Regarding `Nc1ccc(S(=O)(=O)Nc2nccs2)cc1` [sulfathiazole], the “degree … (GFP inhibition) in screening” value in series [1] was “effect of reducing green luminescence”.
